Assay results from patent publication US5753648A, “Tricyclic benzazepine vasopressin antagonists” (American Cyanamid Company, priority 1996, dated 1998).
Where a name gives a salt, the structure may show the parent alone.

Tests used:
Rat Hepatic V1 Receptors = Rat Hepatic V1 Receptors (Rattus norvegicus, UniProt P30560); assay: Binding Assay to Rat Hepatic V1 Receptors
Experimental: Binding Assay to Rat Hepatic V1 Receptors
Rat liver plasma membranes expressing the vasopressin V1 receptor subtypes are isolated by sucrose density gradient according to the method described by Lesko et al, (1973). These membranes are quickly suspended in 50.0 mM Tris.HCl buffer, pH 7.4, containing 0.2% bovine serum albumin (BSA) and 0.1 mM phenylmethylsulfonylfluoride (PMSF) and kept frozen at -70° C. until used in subsequent binding experiments. For binding experiments, the following is added to the wells of a ninety-six well format microtiter plate: 100 μl of 100.0 mM Tris.HCl buffer containing 10.0 mM MgCl2, 0.2% heat inactivated BSA and a mixture of protease inhibitors: leupeptin, 1.0 mg %; aprotinin, 1.0 mg %; 1,10-phenanthroline,2.0 mg %; trypsin inhibitor, 10.0 mg % and 0.1 mM PMSF, 20.0 μl of [phenylalanyl-3,4,5,-^3 H] vaso-pressin (S.A. 45.1 Ci/mmole) at 0.8 nM, and the reaction initiated by the addition of 80 μl of tissue membranes containing 20 μg of tissue protein. The plates are kept undisturbed on the bench top at room temperature for 120 min. to reach equilibrium. Non-specific samples are assayed in the presence of 0.1 μm of the unlabeled antagonist phenylalanylvasopressin, added in 20.0 μl volume. For test compounds, these are solubilized in 50% dimethylsulfoxide (DMSO) and added in 20.0 μl volume to a final incubation volume of 200 μl. Upon completion of binding, the content of each well is filtered off, using a Brandel® cell Harvester (Gaithersburg, Md.). The radioactivity trapped on the filter disk by the ligand-receptor complex is assessed by liquid scintillation counting in a Packard LS Counter, with an efficiency of 65% for tritium. The data are analyzed for IC50 values by the LUNDON-2 program for competition (LUNDON SOFTWARE, Ohio).

oxytocin receptors = molecular target: T1, oxytocin receptors (Rattus norvegicus, UniProt P70536); assay: Oxytocin Receptor Binding; settings: for IC50: rat uterine membranes, [3H]oxytocin
T1 sequence (P70536 1-388): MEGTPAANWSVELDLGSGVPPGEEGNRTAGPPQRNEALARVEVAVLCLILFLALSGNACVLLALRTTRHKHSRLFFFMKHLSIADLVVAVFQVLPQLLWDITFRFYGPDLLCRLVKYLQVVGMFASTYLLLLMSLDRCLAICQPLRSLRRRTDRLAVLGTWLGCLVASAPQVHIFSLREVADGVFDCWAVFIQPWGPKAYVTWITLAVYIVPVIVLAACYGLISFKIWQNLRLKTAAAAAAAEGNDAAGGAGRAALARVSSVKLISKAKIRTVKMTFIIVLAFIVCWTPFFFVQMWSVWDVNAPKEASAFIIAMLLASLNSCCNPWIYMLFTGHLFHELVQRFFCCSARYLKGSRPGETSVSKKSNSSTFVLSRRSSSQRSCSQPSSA

[1] = molecular target: T2, Rat Kidney Medullary V2 Receptors (Rattus norvegicus, UniProt Q00788); assay: biochemical; format: binding
T2 construct: Medullary tissues from rat kidneys are dissected out; from tissue; host or cells: rat kidney medulla membranes
T2 sequence (Q00788 whole entry): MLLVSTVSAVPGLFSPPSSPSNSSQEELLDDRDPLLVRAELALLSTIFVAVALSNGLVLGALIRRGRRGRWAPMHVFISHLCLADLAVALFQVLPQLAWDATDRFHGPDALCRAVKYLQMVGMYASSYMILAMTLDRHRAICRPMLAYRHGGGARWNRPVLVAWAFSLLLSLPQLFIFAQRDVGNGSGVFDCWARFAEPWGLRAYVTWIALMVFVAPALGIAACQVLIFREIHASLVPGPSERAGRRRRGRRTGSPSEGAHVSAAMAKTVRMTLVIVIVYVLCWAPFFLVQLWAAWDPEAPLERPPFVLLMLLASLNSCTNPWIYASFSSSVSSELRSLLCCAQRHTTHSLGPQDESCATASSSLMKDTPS
Experimental: Binding Assay to Rat Kidney Medullary V2 Receptors
Medullary tissues from rat kidneys are dissected out, cut into small pieces and soaked in a […] sodium chloride solution containing 1.0 mM EDTA with many changes of the liquid phase, until the solution is clear of blood. The tissue is homogenized in a 0.25M sucrose solution containing 1.0 mM EDTA and 0.1 mM PMSF using a Potter-Elvehjem homogenizer with a teflon pestle. The homogenate is filtered through several layers (4 layers) of cheese cloth. The filtrate is rehomogenized using a dounce homogenizer, with a tight fitting pestle. The final homogenate is centrifuged at 1500×g for 15 min. The nuclear pellet is discarded and the supernatant fluid recentrifuged at 40,000×g for 30 min. The resulting pellet formed contains a dark inner part with the exterior, slightly pink. The pink outer part is suspended in a small amount of 50.0 mM Tris.HCl buffer, pH 7.4. The protein content is determined by the Lowry's method (Lowry et al, J. Biol. Chem., 1953). The membrane suspension is stored at -70° C., in 50.0 mM Tris.HCl, containing 0.2% inactivated BSA and 0.1 mM PMSF in aliquots of 1.0 ml containing 10.0 mg protein per ml of suspension until use in subsequent binding experiments.
For binding experiments, the following is added in μl volume to wells of a 96 well format of a microtiter plate: 100.0 μl of 100.0 mM Tris.HCl buffer containing 0.2% heat inactivated BSA, 10.0 mM MgCl2 and a mixture of protease inhibitors: leupeptin, 1.0 mg %; aprotinin, 1.0 mg %; 1,10-phenanthroline, 2.0 mg %; trypsin inhibitor, 10.0 mg % and 0.1 mM PMSF, 20.0 μl of [^3 H] Arginine^8, vasopressin (S.A. 75.0 Ci/mmole) at 0.8 nM and the reaction initiated by the addition of 80.0 μl of tissue membranes (200.0 μg tissue protein). The plates are left undisturbed on the bench top for 120 min. to reach equilibrium. Non-specific binding is assessed in the presence of 1.0 μM of unlabeled ligand, added in 20 μl volume. For test compounds, these are solubilized in 50% dimethylsulfoxide (DMSO) and added in 20.0 μl volume to a final incubation volume of 200 μl. Upon completion of binding, the content of each well is filtered off, using a Brandel® cell Harvester (Gaithersburg, Md.). The radioactivity trapped on the filter disk by the ligand-receptor complex is assessed by liquid scintillation counting in a Packard LS Counter, with an efficiency of 65% for tritium. The data are analyzed for IC50 values by the LUNDON-2 program for competition (LUNDON SOFTWARE, Ohio).

Chain of Rat Hepatic V1 Receptors (P30560 whole entry): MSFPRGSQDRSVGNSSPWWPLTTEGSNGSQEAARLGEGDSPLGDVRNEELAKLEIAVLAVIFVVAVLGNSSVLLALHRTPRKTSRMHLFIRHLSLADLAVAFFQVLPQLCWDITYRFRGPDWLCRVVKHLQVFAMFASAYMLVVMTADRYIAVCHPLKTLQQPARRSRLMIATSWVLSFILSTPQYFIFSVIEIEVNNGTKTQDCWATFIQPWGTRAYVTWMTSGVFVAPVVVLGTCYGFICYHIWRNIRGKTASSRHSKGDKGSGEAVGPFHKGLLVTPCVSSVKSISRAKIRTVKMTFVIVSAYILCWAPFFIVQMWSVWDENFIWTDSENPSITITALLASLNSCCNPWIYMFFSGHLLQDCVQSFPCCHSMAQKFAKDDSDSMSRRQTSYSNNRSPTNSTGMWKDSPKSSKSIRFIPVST

Compound | IC50 (Rat Hepatic V1 Receptors) [µM] | IC50 (oxytocin receptors) [µM] | IC50 [1] [µM] | inhibition at 10 µM (oxytocin receptors) [%] | inhibition at 1 µM ([1]; at 1 μM) [%] | inhibition at 1 µM (oxytocin receptors) [%] | inhibition at 2.5 µM (oxytocin receptors; dose 2.5 μM) [%] | inhibition at 1.25 µM (oxytocin receptors; dose 1.25 μM) [%]
CN(C)c1ncccc1C(=O)Nc1ccc(C(=O)N2Cc3cccn3Cc3ccccc32)cc1 [Example 332, N-[4-(5H-Pyrrolo[2,1-c][1,4]benzodiazepin-10(11H)-ylcarbonyl)phenyl]-2-(dimethylamino)-pyridine-3-carboxamide Hydrochloride] | 0.031 | 0.83 | 0.0034 |  |  |  |  | 
CC(C)(C)Nc1ccc(C(=O)N2Cc3cccn3Cc3ccccc32)cn1 [Example 348] | 0.08 | 0.71 |  | 95 | 43 |  |  | 
O=C(Nc1ccc(C(=O)N2Cc3ccnn3Cc3ccccc32)cn1)c1ccccc1-c1ccccc1 [Example 245] | 0.019 |  | 0.001 |  |  |  |  | 
Cc1ncccc1C(=O)Nc1ccc(C(=O)N2Cc3cccn3Cc3ccccc32)cn1 [Example 329, N-[5-(5H-Pyrrolo[2,1-c][1,4]benzodiazepin-10(11H)-ylcarbonyl]-2-pyridinyl]-2-methylpyridine-3-carboxamide] | 0.31 | 0.19 | 0.07 | 91 |  |  |  | 
O=C(Nc1ccc(C(=O)N2Cc3cccn3Cc3ccccc32)cc1)c1ccccc1-c1ccccn1 [Example 341, N-[4-(5H-Pyrrolo[2,1-c][1,4]benzodiazepin-10(11H)-ylcarbonyl)phenyl]-2-(2-pyridinyl)benzamide] | 0.02 |  | 0.004 |  |  | 74 |  | 
O=C(Nc1ccc(C(=O)N2Cc3cccn3Cc3ccccc32)cc1)c1ccccc1Cc1ccccc1 [Example 321, N-[4-(5H-Pyrrolo[2,1-c][1,4]benzodiazepine-10(11H)-ylcarbonyl)phenyl]-2-(phenylmethyl)benzamide] | 0.018 |  | 0.0051 |  |  |  |  | 
Cc1ncccc1C(=O)Nc1ccc(C(=O)N2Cc3cccn3Cc3ccccc32)c(Cl)c1 [Example 328, N-[4-(5H-Pyrrolo[2,1-c][1,4]benzodiazepin-10(11H)-yl-carbonyl)-3-chlorophenyl]-2-methyl-pyridine-3-carboxamide] | 3.3 | 0.57 | 0.019 | 85 |  |  |  | 
O=C(Nc1ccc(C(=O)N2Cc3cccn3Cc3ccccc32)cn1)c1ccc([N+](=O)[O-])cc1Cl [Example 33] | 0.45 | 0.51 | 0.03 | 95 |  |  |  | 
O=C(c1ccc(NCc2ccccc2)nc1)N1Cc2cccn2Cc2ccccc21 [Example 273, 10[[6-[(Phenylmethyl)amino]-3-pyridinyl]carbonyl]-10,11-dihydro-5H-pyrrolo[2,1-c][1,4]benzodiazepine] | 0.19 | 0.056 | 0.082 |  |  |  | 95 | 
Cc1ncccc1C(=O)Nc1ccc(C(=O)N2Cc3cccn3Cc3ccccc32)cc1 [Example 327, N-[4-(5H-Pyrrolo[2,1-c][1,4]benzodiazepin-10(11H)-ylcarbonyl)phenyl]-2-methylpyridine-3-carboxamide] | 0.35 |  | 0.028 |  |  | 56 |  | 
Cc1ccccc1C(=O)Nc1ncc(C(=O)N2Cc3cccn3Cc3ccccc32)cc1Br [Example 12] | 0.21 | 0.8 | 0.024 | 98 |  |  |  | 
O=C(Nc1ccc(C(=O)N2Cc3cccn3Cc3ccccc32)cc1)c1cccnc1Cl [Example 333, N-[4-(5H-Pyrrolo[2,1-c][1,4]benzodiazepin-10(11H)-ylcarbonyl)phenyl]-2-chloropyridine-3-carboxamide] | 0.25 | 0.88 | 0.41 | 98 |  |  |  | 
O=C(Nc1ccc(C(=O)N2Cc3cccn3Cc3ccccc32)cc1)c1ccccc1-c1ccccc1 [Example 320, N-[4-(5H-Pyrrolo[2,1-c][1,4]benzodiazepin-10(11H)-ylcarbonyl)phenyl][1,1'-biphenyl]-2-carboxamide] | 0.0034 |  | 0.0026 |  |  |  |  | 
O=C(c1ccc(NCc2ccccc2Br)nc1)N1Cc2cccn2Cc2ccccc21 [Example 352] | 0.088 | 0.105 | 0.059 |  |  |  |  | 96
O=C(Nc1ccc(C(=O)N2Cc3cccn3Cc3ccccc32)cn1)c1ccccc1Br [Example 8] | 0.007 | 0.15 | 0.0016 |  |  | 89 |  | 
O=C(Nc1ccc(C(=O)N2Cc3cccn3Cc3ccccc32)c(Cl)c1)c1ccccc1Cc1ccccc1 [Example 322, N-[4-(5H-Pyrrolo[2,1-c][1,4]benzodiazenin-10(11H)-ylcarbonyl)-3-chlorophenyl]-2-(phenylmethyl)benzamide] | 0.67 |  | 0.011 |  |  |  |  | 
CN1CCN(c2ncccc2C(=O)Nc2ccc(C(=O)N3Cc4cccn4Cc4ccccc43)cc2)CC1 [Example 337, N-[4-(5H-pyrrolo[2,1-c][1,4]benzodiazepin-10(11H)-ylcarbonyl)phenyl]-2-(4-methyl-1-piperazinyl)-pyridine-3-carboxamide] | 1.3 |  | 0.65 |  |  | 16 |  | 
Cc1ccc(F)cc1C(=O)Nc1ccc(C(=O)N2Cc3ccnn3Cc3ccccc32)cn1 [Example 208, N-[5-(4H-Pyrazolo[5,1-c][1,4]benzodiazepin-5(10H)-ylcarbonyl)-2-pyridinyl]-5-fluoro-2-methylbenzamide] | 0.087 | 0.73 | 0.011 | 95 |  |  |  | 
CC(C)(Oc1ccc(Cl)cc1)C(=O)Nc1ccc(C(=O)N2Cc3cccn3Cc3ccccc32)cc1 [Example 347, N-[4-(5H-Pyrrolo[2,1-c][1,4]benzodiazepin-10(11H)-ylcarbonyl)phenyl]-2-methyl-2-(4-chlorophenyloxy)propionamide] | 0.18 |  | 0.42 | 86 |  |  |  | 
O=C(Nc1ccc(C(=O)N2Cc3cccn3Cc3ccccc32)cc1)c1ccccc1-c1ccc(C(F)(F)F)cc1 [Example 324] | 0.42 |  | 0.12 |  |  | 45 |  | 
O=C(Nc1ccc(C(=O)N2Cc3cccn3Cc3ccccc32)c(Cl)c1)c1ccccc1-c1ccccc1 [Example 319, N-[4-(5H-Pyrrolo[2,1-c][1,4]benzodiazepin-10(11H)-ylcarbonyl)-3-chlorophenyl][1,1'-biphenyl]-2-carboxamide] | 0.016 |  | 0.0015 |  |  |  |  | 
